{
  "source": "patent US20080125432A1",
  "about": "(Devgen NV, priority 2004, published 2008)",
  "key": {"[1]": {"test_system": "arterially perfused rabbit left ventricular wedge preparation", "assay": "Arterially perfused rabbit left ventricular wedge preparation (QT, Tp-e, EAD, TdP)", "conditions": "2000 ms BCL; for Tp-e: control 52.2 ± 3.7; for QT: control 288.2 ± 11.1; for EAD: events per preparations", "from_the_text": "The compounds were checked for their effect on the QT interval, the Tp-e interval (Yan and Antzelevitch, Circulation 1998; 98:1928-1936; Yan et al, Circulation 2001; 103:2851-2856) that approximates closely to transmural dispersion of repolarization (TDR), the Tp-e/QT ratio that reflects the potential of phase 2 early afterdepolarization (EAD) development in sub- and/or endocardium (Joshi et al, Journal of Electrocardiology, 2004, 34 (suppl): 7-14) and the phenomena dependent on phase 2 EAD (i.e. R on T extrasystole and TdP) in the isolated arterially-perfused rabbit ventricular wedge preparation.\nFemale rabbits weighting 2.5-3 kg were anticoagulated with heparin and anesthetized with pentobarbital (30-35 mg/kg, i.v.). The chest was opened via left thoracotomy, and the heart was excised and placed in a cardioplegic solution consisting of cold (4° C.) normal Tyrode s solution (in mmol/l: NaCl 129, KCl 4.0, CaCl2 1.8, NaH2PO4 0.9, MgSO4 0.5, NaHCO3 20, glucose 5.5). A transmural wedge, approximately 1.5 cm wide and 2-3 cm long, was dissected from the left ventricle and rapidly cannulated via the left anterior descending artery or the circumflex artery and perfused with cardioplegic solution for <4 min. The preparation was then transferred to a tissue bath (100 ml) and perfused with warm (35.7±0.1° C.) Tyrode's solution containing 4 mM K^+ buffered ? with 95% O2 and 5% CO2. Perfusion pressure was set at 40-50 mmHg by using a peristaltic pump. The preparation was paced at a basic cycle length of 1000 ms and allowed to equilibrate for approximately 1 h, the time necessary to achieve electrical stability. Electrical pacing was delivered via bipolar silver electrodes insulated except at the tips and applied to the endocardial surface.\nAfter the preparation equilibrated for one hour, the experiment was initiated. During the infusion of the compounds, the preparation was stimulated from the endocardium at basic cycle lengths of 1000 ms from the beginning of the infusion to the 20th minute and then at 2000 ms from the 20th minute to the 30th minute. At the end of each pacing cycle length, the ECG signal was sampled for 1 to 2 min at a sampling rate of 1562 Hz (Spike 2 software, CED, England)\nA transmural ECG signal was recorded in all experiments. The QT interval was defined as the time from the onset of the QRS to the point at which the final downslope of the T wave across isoelectric line. The QT interval values were derived from the mean values of four consecutive beats. (Yan and Antzelevitch, Circulation 1998; Yan et al, Circulation 2001; 103:2851-2856; and Antzelevitch, Journal of Electrocardiology 2004; 37(Suppl): 15-24)."}, "[2]": {"test_system": "isolated guinea pig right ventricular papillary muscle", "assay": "Ex-vivo organ study: functional refractory period in isolated guinea pig right ventricular papillary muscle", "conditions": "conc 10^−5 mol/l", "from_the_text": "The compounds were checked for their effect on the force of contraction, stimulation threshold and for the Functional Refractory Period (FRP) in isolated rat left atria (Rat LA). Rat left atria functionally express the Kv4.3 ion channel, producing the Ito current of the action potential. […] The guinea pig action potential is dominated by hERG like ion channels for the refractory currents. Consequently, activity of hERG channels in vivo should be seen in GP pap muscle preparations.\nMethod: Rat LA (Same Method Applies to GP pap. Muscle)\nLeft atria were mounted vertically in a two-chambered organ bath containing 100 ml of buffer solution (in mM: NaH2PO4 0.6, MgSO4 0.6, KCl 4.7, NaHCO3 25, glucose 4.5, NaCl-120, CaCl2 2.4). The solution was saturated with and circulated by a gas mixture containing 95% O2 and 5% CO2. The temperature was kept constant at 30° C. […] The isometric force of the preparations was measured by force transducers, connected to amplifiers, documented by a pen recorder and fed into a computer for evaluation. Force of contraction (FC), threshold stimulus (TS) and the functional refractory period (FRP) were measured at baseline (pre), 20 min after addition of compound, and after washout at the end of the experiment. Threshold stimulus, representing excitability of the tissue, was assessed by varying the voltage applied for electrical stimulation. […]"}},
  "data": [
    {"smiles": "COc1ccccc1Nc1nc(C)c(C(=O)N[C@H]2CCC[C@@H]2OCc2ccccc2)s1", "note": "[Compound 68, 2-(2-methoxy-phenylamino)-4-methyl-thiazole-5-carboxylic acid (1S,2S)-2-(benzyloxycyclopent-1-yl) amide]", "values": [
      {"measurement": "TdP Score", "setting": "[1]; 1 μmol/l", "value": "0.0 ± 0.0"},
      {"measurement": "Tp-e", "setting": "[1]; 1 μmol/l", "value": "52.0 ± 3.9", "unit": "ms"},
      {"measurement": "QT", "setting": "[1]; 1 μmol/l", "value": "287.6 ± 11.4", "unit": "ms"},
      {"measurement": "EAD", "setting": "[1]; 1 μmol/l", "value": "0/5"},
      {"measurement": "TdP Score", "setting": "[1]; 3 μmol/l", "value": "0.0 ± 0.0"},
      {"measurement": "Tp-e", "setting": "[1]; 3 μmol/l", "value": "51.4 ± 4.0", "unit": "ms"},
      {"measurement": "QT", "setting": "[1]; 3 μmol/l", "value": "286.6 ± 12.0", "unit": "ms"},
      {"measurement": "EAD", "setting": "[1]; 3 μmol/l", "value": "0/5"},
      {"measurement": "dFRP Guinea Pig", "setting": "[2]", "value": 0, "unit": "ms"}
    ]}
  ]
}
